Reference: patent US20050197350A1, “Novel quinoline, tetrahydroquinazoline, and pyrimidine derivatives and methods of treatment related to the use thereof” (TAISHO PHARMACEUTICAL CO., LTD., priority 2003, published 2005)

Tested on: MCH receptors
Experiment: MCH receptor activity class (method not given)
Details: class by percent of control at 10^-7 M or IC50

Row | Structure (SMILES) | class
1 | CN(C)c1cc(N[C@H]2CC[C@@H](CNCc3csc4ccccc34)CC2)nc2ccccc12 [compound 1178] | 3 (Class 3 The value of percent of control at 10^−7 M was more than 60% or the value of IC50 was more than 200 nM.)
2 | CN(C)c1cc(N[C@H]2CC[C@@H](CNCc3cn(C)c4ccccc34)CC2)nc2ccccc12 [compound 1179] | 3 (Class 3 The value of percent of control at 10^−7 M was more than 60% or the value of IC50 was more than 200 nM.)
3 | Cc1ccc(CNC[C@H]2CC[C@@H](Nc3cc(N(C)C)c4ccccc4n3)CC2)s1 [compound 1180] | 3 (Class 3 The value of percent of control at 10^−7 M was more than 60% or the value of IC50 was more than 200 nM.)
4 | Cc1cc(C)c(CNC[C@H]2CC[C@@H](Nc3cc(N(C)C)c4ccccc4n3)CC2)c(C)c1 [compound 1181] | 3 (Class 3 The value of percent of control at 10^−7 M was more than 60% or the value of IC50 was more than 200 nM.)
5 | CN(C)c1cc(N[C@H]2CC[C@@H](CNCc3ccc4c(c3)OCO4)CC2)nc2ccccc12 [compound 1182] | 3 (Class 3 The value of percent of control at 10^−7 M was more than 60% or the value of IC50 was more than 200 nM.)
6 | CN(C)c1cc(N[C@H]2CC[C@@H](CNCc3ccsc3)CC2)nc2ccccc12 [compound 1183] | 3 (Class 3 The value of percent of control at 10^−7 M was more than 60% or the value of IC50 was more than 200 nM.)
7 | Cc1cccc(CNC[C@H]2CC[C@@H](Nc3cc(N(C)C)c4ccccc4n3)CC2)c1 [compound 1184] | 3 (Class 3 The value of percent of control at 10^−7 M was more than 60% or the value of IC50 was more than 200 nM.)
8 | Cc1ccccc1CNC[C@H]1CC[C@@H](Nc2cc(N(C)C)c3ccccc3n2)CC1 [compound 1185] | 3 (Class 3 The value of percent of control at 10^−7 M was more than 60% or the value of IC50 was more than 200 nM.)
9 | Cc1ccc(CNC[C@H]2CC[C@@H](Nc3cc(N(C)C)c4ccccc4n3)CC2)cc1 [compound 1186] | 3 (Class 3 The value of percent of control at 10^−7 M was more than 60% or the value of IC50 was more than 200 nM.)
10 | CN(C)c1cc(N[C@H]2CC[C@@H](CNCc3cc(Cl)cc(Cl)c3)CC2)nc2ccccc12 [compound 1187] | 3 (Class 3 The value of percent of control at 10^−7 M was more than 60% or the value of IC50 was more than 200 nM.)
11 | COc1cc(CNC[C@H]2CC[C@@H](Nc3cc(N(C)C)c4ccccc4n3)CC2)cc2c1OCO2 [compound 1188] | 2 (Class 2: The value of percent of control at 10^−7 M was from 40% to 60% or the value of IC′50 was from 50 nM to 200 nM.)
12 | COc1cc(CNC[C@H]2CC[C@@H](Nc3cc(N(C)C)c4ccccc4n3)CC2)cc(Br)c1OC [compound 1189] | 3 (Class 3 The value of percent of control at 10^−7 M was more than 60% or the value of IC50 was more than 200 nM.)
13 | COc1ccc(CNC[C@H]2CC[C@@H](Nc3cc(N(C)C)c4ccccc4n3)CC2)cc1C [compound 1190] | 3 (Class 3 The value of percent of control at 10^−7 M was more than 60% or the value of IC50 was more than 200 nM.)
14 | COc1cc(Br)c(CNC[C@H]2CC[C@@H](Nc3cc(N(C)C)c4ccccc4n3)CC2)cc1OC [compound 1191] | 3 (Class 3 The value of percent of control at 10^−7 M was more than 60% or the value of IC50 was more than 200 nM.)
15 | Cc1oc(-c2ccccc2)cc1CNC[C@H]1CC[C@@H](Nc2cc(N(C)C)c3ccccc3n2)CC1 [compound 1192] | 3 (Class 3 The value of percent of control at 10^−7 M was more than 60% or the value of IC50 was more than 200 nM.)
16 | COc1ccc(CNC[C@H]2CC[C@@H](Nc3cc(N(C)C)c4ccccc4n3)CC2)cc1OC [compound 1193] | 3 (Class 3 The value of percent of control at 10^−7 M was more than 60% or the value of IC50 was more than 200 nM.)
17 | Cc1cc(CNC[C@H]2CC[C@@H](Nc3cc(N(C)C)c4ccccc4n3)CC2)ccc1O [compound 1194] | 3 (Class 3 The value of percent of control at 10^−7 M was more than 60% or the value of IC50 was more than 200 nM.)
18 | COc1cc(C)c(CNC[C@H]2CC[C@@H](Nc3cc(N(C)C)c4ccccc4n3)CC2)cc1C [compound 1195] | 3 (Class 3 The value of percent of control at 10^−7 M was more than 60% or the value of IC50 was more than 200 nM.)
19 | COc1cccc(CNC[C@H]2CC[C@@H](Nc3cc(N(C)C)c4ccccc4n3)CC2)c1O [compound 1196] | 3 (Class 3 The value of percent of control at 10^−7 M was more than 60% or the value of IC50 was more than 200 nM.)
20 | CN(C)c1cc(N[C@H]2CC[C@@H](CNCc3cc(C(F)(F)F)cc(Cl)c3F)CC2)nc2ccccc12 [compound 1197] | 3 (Class 3 The value of percent of control at 10^−7 M was more than 60% or the value of IC50 was more than 200 nM.)
21 | CN(C)c1cc(N[C@H]2CC[C@@H](CNCc3cc(F)cc(C(F)(F)F)c3)CC2)nc2ccccc12 [compound 1198] | 3 (Class 3 The value of percent of control at 10^−7 M was more than 60% or the value of IC50 was more than 200 nM.)
22 | COc1cc(CNC[C@H]2CC[C@@H](Nc3cc(N(C)C)c4ccccc4n3)CC2)cc(F)c1O [compound 1199] | 3 (Class 3 The value of percent of control at 10^−7 M was more than 60% or the value of IC50 was more than 200 nM.)

Row | Structure (SMILES) | class
23 | COc1cc(F)c(CNC[C@H]2CC[C@@H](Nc3cc(N(C)C)c4ccccc4n3)CC2)cc1OC [compound 1200] | 3 (Class 3 The value of percent of control at 10^−7 M was more than 60% or the value of IC50 was more than 200 nM.)
24 | CCc1ccccc1CNC[C@H]1CC[C@@H](Nc2cc(N(C)C)c3ccccc3n2)CC1 [compound 1201] | 3 (Class 3 The value of percent of control at 10^−7 M was more than 60% or the value of IC50 was more than 200 nM.)
25 | CN(C)c1cc(N[C@H]2CC[C@@H](CNCc3ccc(N(C)CCC#N)cc3)CC2)nc2ccccc12 [compound 1202] | 3 (Class 3 The value of percent of control at 10^−7 M was more than 60% or the value of IC50 was more than 200 nM.)
26 | CN(C)c1cc(N[C@H]2CC[C@@H](CNCc3ccc(OCc4ccc(Br)cc4)cc3)CC2)nc2ccccc12 [compound 1203] | 3 (Class 3 The value of percent of control at 10^−7 M was more than 60% or the value of IC50 was more than 200 nM.)
27 | CCOc1c(Br)cc(Br)cc1CNC[C@H]1CC[C@@H](Nc2cc(N(C)C)c3ccccc3n2)CC1 [compound 1204] | 3 (Class 3 The value of percent of control at 10^−7 M was more than 60% or the value of IC50 was more than 200 nM.)
28 | COc1cccc(OC)c1CN[C@H]1CC[C@@H](Nc2nccc(N(C)C)n2)CC1 [compound 1205] | 3 (Class 3 The value of percent of control at 10^−7 M was more than 60% or the value of IC50 was more than 200 nM.)
29 | CCOc1ccccc1CN[C@H]1CC[C@@H](Nc2nccc(N(C)C)n2)CC1 [compound 1206] | 3 (Class 3 The value of percent of control at 10^−7 M was more than 60% or the value of IC50 was more than 200 nM.)
30 | CN(C)c1ccnc(N[C@H]2CC[C@@H](NCc3c[nH]c4ccccc34)CC2)n1 [compound 1207] | 3 (Class 3 The value of percent of control at 10^−7 M was more than 60% or the value of IC50 was more than 200 nM.)
31 | COc1ccc(OC)c(CN[C@H]2CC[C@@H](Nc3nccc(N(C)C)n3)CC2)c1 [compound 1208] | 3 (Class 3 The value of percent of control at 10^−7 M was more than 60% or the value of IC50 was more than 200 nM.)
32 | COc1ccc(CN[C@H]2CC[C@@H](Nc3nccc(N(C)C)n3)CC2)c2ccccc12 [compound 1209] | 3 (Class 3 The value of percent of control at 10^−7 M was more than 60% or the value of IC50 was more than 200 nM.)
33 | COc1ccc2[nH]cc(CN[C@H]3CC[C@@H](Nc4nccc(N(C)C)n4)CC3)c2c1 [compound 1210] | 3 (Class 3 The value of percent of control at 10^−7 M was more than 60% or the value of IC50 was more than 200 nM.)
34 | COc1ccc2ccccc2c1CN[C@H]1CC[C@@H](Nc2nccc(N(C)C)n2)CC1 [compound 1211] | 3 (Class 3 The value of percent of control at 10^−7 M was more than 60% or the value of IC50 was more than 200 nM.)
35 | COc1cc(Br)cc(CN[C@H]2CC[C@@H](Nc3nccc(N(C)C)n3)CC2)c1O [compound 1212] | 3 (Class 3 The value of percent of control at 10^−7 M was more than 60% or the value of IC50 was more than 200 nM.)
36 | CN(C)c1ccnc(N[C@H]2CC[C@@H](NCc3c[nH]c4ccc(Br)cc34)CC2)n1 [compound 1213] | 2 (Class 2: The value of percent of control at 10^−7 M was from 40% to 60% or the value of IC′50 was from 50 nM to 200 nM.)
37 | COc1ccc(CN[C@H]2CC[C@@H](Nc3nccc(N(C)C)n3)CC2)c(OC)c1 [compound 1214] | 3 (Class 3 The value of percent of control at 10^−7 M was more than 60% or the value of IC50 was more than 200 nM.)
38 | COc1ccc(CN[C@H]2CC[C@@H](Nc3nccc(N(C)C)n3)CC2)c(OC)c1OC [compound 1215] | 3 (Class 3 The value of percent of control at 10^−7 M was more than 60% or the value of IC50 was more than 200 nM.)
39 | COc1cc(CN[C@H]2CC[C@@H](Nc3nccc(N(C)C)n3)CC2)cc(OC)c1O [compound 1216] | 3 (Class 3 The value of percent of control at 10^−7 M was more than 60% or the value of IC50 was more than 200 nM.)
40 | CCOc1cc(CN[C@H]2CC[C@@H](Nc3nccc(N(C)C)n3)CC2)ccc1OC [compound 1217] | 3 (Class 3 The value of percent of control at 10^−7 M was more than 60% or the value of IC50 was more than 200 nM.)
41 | CN(C)c1ccnc(N[C@H]2CC[C@@H](NCc3c[nH]nc3-c3ccc(C(F)(F)F)cc3)CC2)n1 [compound 1218] | 3 (Class 3 The value of percent of control at 10^−7 M was more than 60% or the value of IC50 was more than 200 nM.)
42 | COc1cc(CN[C@H]2CC[C@@H](Nc3nccc(N(C)C)n3)CC2)cc(OC)c1OC [compound 1219, N4,N4-dimethyl-N2-{cis-4-[(3,4,5-trimethoxybenzyl)amino]cyclohexcyl}pyrimidine-2,4-diamine] | 3 (Class 3 The value of percent of control at 10^−7 M was more than 60% or the value of IC50 was more than 200 nM.)
43 | COc1cc(CN[C@H]2CC[C@@H](Nc3nccc(N(C)C)n3)CC2)cc(OC)c1 [compound 1221] | 3 (Class 3 The value of percent of control at 10^−7 M was more than 60% or the value of IC50 was more than 200 nM.)
44 | COc1cc(CN[C@H]2CC[C@@H](Nc3nccc(N(C)C)n3)CC2)cc(I)c1O [compound 1222] | 3 (Class 3 The value of percent of control at 10^−7 M was more than 60% or the value of IC50 was more than 200 nM.)
